Entries after “also recorded” stand apart in the source; their conditions may differ. Where two headings read alike, the source gives them in different places.
Legend:
[1] = tested on: Spontaneously Hypertensive rat (SHR) pups; settings: from literature (Fox et al. 2002, 2005; Decker et al. 2008), cited from earlier work
[2] = tested on: Spontaneously Hypertensive rat (SHR) pups; assay: 5-trial inhibitory avoidance in SHR rat pups; type: in vivo; settings: for Level of Efficacy in SHR 5-trial Inhibitory Avoidance Model: applicant's Examples 1 and 2
Description: Methods: In this behavioral paradigm, hypothesized to test aspects of both attention and impulsivity, vehicle-treated Spontaneously Hypertensive rat (SHR) pups show an impaired ability to withhold a natural response to transfer from the light into a preferred dark chamber that is paired with a mild footshock. In this study, SHR pups at postnatal day 22-23 were dosed with either vehicle or atomoxetine (0.001, 0.01, 0.1, 1.0 and 6.0 mg/kg, s.c.) 30 min prior to being tested. They were then placed into the brightly illuminated compartment of a two compartment chamber (Hamilton Kinder, San Diego, Calif.) with a retractable door between the light and dark compartments opened. After animals transferred through the open door to the dark compartment, the door closed automatically and a 0.1 mA scrambled current was applied to a 31 bar stainless steel grid floor for one second. At this point, the pup was removed and returned to its home cage and littermates for a one minute inter trial interval, and the transfer latency was noted. The same pup was returned to the bright compartment, and the process repeated for five trials. Latency to enter the dark compartment was used to evaluate learning.
Methods: In this behavioral paradigm, hypothesized to test aspects of both attention and impulsivity, vehicle-treated SHR rat pups show an impaired ability to withhold a natural response to transfer from the light into a preferred dark chamber that is paired with a mild footshock. In this study, SHR pups at postnatal day 21-25 were dosed with either vehicle or the alpha7 agonist, compound 1,2-methyl-5-[6-phenylpyridazin-3-yl]octahydropyrrolo[3,4-c]pyrrole, (0.01, 0.1, and 1.0 umol/kg, s.c.) 30 min prior to being tested. They were then placed into the brightly illuminated compartment of a two compartment chamber (Hamilton Kinder, San Diego, Calif.) with a retractable door between the light and dark compartments opened. After animals transferred through the open door to the dark compartment, the door closed automatically and a 0.1 mA scrambled current was applied to a 31 bar stainless steel grid floor for one second. At this point, the pup was removed and returned to its home cage and littermates for a one minute inter trial interval, and the transfer latency was noted. The same pup was returned to the bright compartment, and the process repeated for five trials. Latency to enter the dark compartment was used to evaluate learning. Methods for evaluating 2-methyl-5-[6-phenylpyridazin-3-yl]octahydropyrrolo[3,4-c]pyrrole also are described in Tietje, Karin R., et al., Preclinical Characterization of A-582941: A Novel α7 Neuronal Nicotinic Receptor Agonist with Broad Spectrum Cognition-Enhancing Properties, CNS Neuroscience & Therapeutics 14 (2008) 65-82 (2008).
The 5-trial inhibitory avoidance assay in spontaneously hypertensive (SHR) rat pups has been proposed as a model with predictive validity for compounds showing efficacy in attention disorders such as ADHD.

rats = rats performing an operant visual signal detection task; Rezvani et al. 2008; cited from earlier work

Cc1ncccc1OC[C@@H]1CCCN1 [ABT-089]
Level of Efficacy in SHR 5-trial Inhibitory Avoidance Model [1]: full efficacy and Full

C[C@@H]1CCCN1CCc1cc2cc(-c3ccc(C#N)cc3)ccc2o1 [ABT-239]
Level of Efficacy in SHR 5-trial Inhibitory Avoidance Model [1]: full efficacy and Full

Cc1cc([C@@H]2CCCN2C)on1 [ABT-418]
Level of Efficacy in SHR 5-trial Inhibitory Avoidance Model [1]: full efficacy and Full

CNCC[C@@H](Oc1ccccc1C)c1ccccc1 [Atomoxetine, atomoxetine]
transfer latency compared to vehicle treated animals ([2]; SHR pups postnatal day 22-23, 0.001, 0.01, 0.1, 1.0 and 6.0 mg/kg s.c., 30 min prior to testing, FIG. 1): did not alter transfer latency | Level of Efficacy in SHR 5-trial Inhibitory Avoidance Model [2]: None | Level of Efficacy in SHR 5-trial Inhibitory Avoidance Model ([2]; listed as atomoxetine): did not show efficacy; also recorded: not efficacious

CN1CC2CN(c3ccc(-c4ccccc4)nn3)CC2C1 (stereo not drawn) [Compound 1, 2-methyl-5-[6-phenylpyridazin-3-yl]octahydropyrrolo[3,4-c]pyrrole]
effect on transfer latency ([2]; SHR pups postnatal day 21-25, 0.01, 0.1 and 1.0 umol/kg s.c., 30 min prior to testing, Mann Whitney p<0.05, FIG. 2): significant, dose dependent effect | transfer latency ([2]; SHR pups postnatal day 21-25, dose of 1 μmol/kg s.c., FIG. 2): significantly increasing transfer latency | Level of Efficacy in SHR 5-trial Inhibitory Avoidance Model [2]: full efficacy and Full

COC(=O)C(c1ccccc1)C1CCCCN1 (stereo not drawn) [Methylphenidate, methylphenidate]
Level of Efficacy in SHR 5-trial Inhibitory Avoidance Model [1]: Full | Level of Efficacy in SHR 5-trial Inhibitory Avoidance Model ([1]; listed as methylphenidate): fully efficacious

Cl.O=C(N[C@@H]1CN2CCC1CC2)c1n[nH]c2ccccc12 [R3487/MEM3454]
visual sustained attention (rats): improve visual sustained attention
